{"source": "patent US20250345307A1", "about": "“SYNTHETIC […] BROAD-SPECTRUM ANTIVIRAL ACTIVITIES AND USES THEREOF” (priority 2020, published 2025)", "key": {"[1]": {"system": "LASV", "experiment": "microbe, parasite or virus in culture", "type": "cell-based, Lassa mammarenavirus", "conditions": "for pEC50: Mammarenavirus lassaense, Hepatocyte, in Mus musculus"}, "[2]": {"system": "HCoV-229E", "type": "cell-based, human coronavirus 229E"}, "[3]": {"system": "HCoV-229E", "type": "cell-based, human coronavirus 229E", "remark": "listed apart in the source"}, "[4]": {"system": "SARS-CoV-2", "type": "cell-based, severe acute respiratory syndrome coronavirus 2"}, "[5]": {"system": "SARS-CoV-2", "type": "cell-based, severe acute respiratory syndrome coronavirus 2", "remark": "listed apart in the source"}, "[6]": {"system": "MRC-5 cells"}, "[7]": {"system": "persistently HEV-infected A549 cells", "conditions": "2 nM, 72 h"}, "[8]": {"system": "HCoV-229E", "experiment": "microbe, parasite or virus in culture", "type": "cell-based, human coronavirus 229E"}, "[9]": {"system": "MERS-CoV", "experiment": "microbe, parasite or virus in culture", "type": "cell-based, Middle East respiratory syndrome coronavirus"}, "[10]": {"system": "CCHFV", "experiment": "microbe, parasite or virus in culture", "type": "cell-based, Crimean-Congo hemorrhagic fever virus", "conditions": "for pEC50: Orthonairovirus haemorrhagiae, Hepatocyte, in Mus musculus"}, "[11]": {"system": "ZIKV", "experiment": "Antiviral activity against ZIKV (strain 976 Uganda) in A549 cells, intracellular ZIKV genomes by qRT-PCR", "type": "cell-based", "conditions": "Zika virus"}, "[12]": {"system": "HCoV-229E", "type": "cell-based, human coronavirus 229E", "remark": "listed apart in the source"}, "[13]": {"system": "HCoV-229E", "experiment": "Immunofluorescence of nsp8 and dsRNA in HCoV-229E-infected MRC-5 cells", "type": "cell-based, human coronavirus 229E", "conditions": "MRC-5, MOI 1, 24 hpi"}, "[14]": {"system": "HEV", "type": "cell-based, hepatitis E virus"}, "[15]": {"system": "eIF4A-dependent translation", "experiment": "cells", "type": "cell-based", "conditions": "for inhibition at 0.01 µM: read-out: inhibition of translation of the (AG)15 construct"}, "[16]": {"system": "SARS-CoV-2", "experiment": "microbe, parasite or virus in culture", "type": "cell-based, severe acute respiratory syndrome coronavirus 2"}, "[17]": {"system": "SARS-CoV-2", "experiment": "Immunofluorescence of viral dsRNA in SARS-CoV-2-infected Vero E6 cells", "type": "cell-based, severe acute respiratory syndrome coronavirus 2", "conditions": "Vero E6, MOI 1, 24 h p.i."}, "[18]": {"system": "NHBE cells", "experiment": "Cytotoxicity in differentiated NHBE cells by light microscopy", "type": "cell-based, human", "conditions": "100 nM"}, "[19]": {"system": "murine hepatocytes", "conditions": "for CC50: mouse"}, "[20]": {"system": "HCoV-229E", "conditions": "Müller et al. [2020]; read-out: EC50 reported previously for HCoV-229E; cited from earlier work"}, "[21]": {"system": "MERS-CoV", "conditions": "read-out: EC50 reported previously for MERS-CoV; cited from earlier work"}, "[22]": {"system": "Vero E6 cells"}, "[23]": {"system": "A549 cells", "conditions": "human"}, "[24]": {"system": "tumor growth", "conditions": "xenograft mouse model; cited from earlier work"}, "[25]": {"conditions": "mice, cited from earlier work"}, "[26]": {"conditions": "Middle East respiratory syndrome-related coronavirus, MRC5"}}, "note": "pEC50: −log10 of the molar value. “Also recorded” adds a separate entry of the source. Where two headings read alike, the source gives them in different places."}
{"compound": "CONC(=O)[C@@H]1[C@H](O)[C@]2(O)c3c(OC)cc(OC)cc3O[C@]2(c2ccc(OC)cc2)[C@H]1c1ccccc1", "note": "[CR-31-B (+)]", "values": [{"measurement": "antiviral activity against LASV and CCHFV (in words)", "setting": "[1]", "result": "no antiviral effects"}, {"measurement": "Coronavirus N-protein levels", "setting": "[2]", "result": "no detectable effect"}, {"measurement": "infectious virus production", "setting": "[3]", "result": "did not significantly reduce viral replication"}, {"measurement": "Viral nucleocapsid (N) protein levels", "setting": "[4]", "result": "not affected"}, {"measurement": "SARS-CoV-2 replication / titers", "setting": "[5]", "result": "did not affect viral replication"}, {"measurement": "cytotoxicity (in words)", "setting": "[6]", "result": "no major cytotoxicity"}, {"measurement": "reduction of cell viability", "setting": "[7]", "result": "no major cytotoxic effects"}]}
{"compound": "CONC(=O)[C@H]1[C@@H](O)[C@@]2(O)c3c(OC)cc(OC)cc3O[C@@]2(c2ccc(OC)cc2)[C@@H]1c1ccccc1", "note": "[CR-31-B (−)]", "values": [{"measurement": "pEC50", "setting": "[8]", "result": 8.54}, {"measurement": "pEC50", "setting": "[8]; Human coronavirus 229E, MRC5", "result": 8.46}, {"measurement": "pEC50", "setting": "[9]", "result": 8.73}, {"measurement": "MERS-CoV titer reduction", "setting": "[9]", "result": "about 5 log phases"}, {"measurement": "pEC50", "setting": "[9]; [26]", "result": 8.68}, {"measurement": "antiviral activity against LASV and CCHFV (in words)", "setting": "[1]", "result": "potent antiviral activity"}, {"measurement": "virus titer drop, LASV-infected cells", "setting": "[1]", "result": "approximately 4 log"}, {"measurement": "pEC50", "setting": "[1]", "result": 7.44}, {"measurement": "pEC50", "setting": "[1]; read-out: EC50 values", "result": "7.30 to 7.70"}, {"measurement": "virus titer drop, CCHFV-infected cells", "setting": "[10]", "result": "~3", "unit": "log"}, {"measurement": "pEC50", "setting": "[10]", "result": 7.70}, {"measurement": "pEC50", "setting": "[11]; A549 cells, MOI 0.1, ZIKV genomes by qRT-PCR, 24 hpi, read-out: EC50", "result": 8.95}, {"measurement": "Coronavirus N-protein levels", "setting": "[2]", "result": "strongly reduced"}, {"measurement": "genomic and subgenomic RNA levels of HCoV-229E", "setting": "[12]", "result": "reduced"}, {"measurement": "formation of viral replication/transcription complexes", "setting": "[13]", "result": "reduced"}, {"measurement": "infectious virus production", "setting": "[3]", "result": "undetectable levels"}, {"measurement": "reduction of virus titer in the supernatant", "setting": "[3]", "result": "about 1.5 orders of magnitude"}, {"measurement": "antiviral effect on extracellular HEV RNA levels", "setting": "[14]", "result": "slightly weaker; also recorded: some antiviral activity"}, {"measurement": "induction of luciferase activity", "setting": "[15]", "result": 1.5, "unit": "fold"}, {"measurement": "reporter activity, VP35-HP only", "setting": "[15]", "result": "about twofold"}, {"measurement": "reporter activity, VP35-HP+(AG)5", "setting": "[15]", "result": "reduced back to basic levels"}, {"measurement": "sensitivity of translation, EBOV VP35 5′-UTR", "setting": "[15]", "result": "insensitive"}, {"measurement": "sensitivity to eIF4A-dependent translation inhibition, 5′-UTRs of SARS-CoV-2, HCoV-229E and MERS-CoV", "setting": "[15]", "result": "similarly sensitive"}, {"measurement": "sensitivity to translation inhibition, 5′-UTRs of HCoV-229E, MERS-CoV and EBOV VP30", "setting": "[15]", "result": "similarly sensitive"}, {"measurement": "sensitivity, HEVgt3c-Purine 5′-UTR", "setting": "[15]", "result": "became sensitive"}, {"measurement": "inhibition at 0.01 µM", "setting": "[15]", "result": "~80", "unit": "%"}, {"measurement": "selectivity index (CC50/EC50)", "setting": "[16]", "result": "> 50"}, {"measurement": "pEC50", "setting": "[16]; Severe acute respiratory syndrome coronavirus 2, Vero C1008, 24 h", "result": "~8.74"}, {"measurement": "Viral nucleocapsid (N) protein levels", "setting": "[4]", "result": "drastically reduced; also recorded: moderately reduced"}, {"measurement": "replicative organelles active in viral RNA synthesis (dsRNA)", "setting": "[17]", "result": "profound reduction"}, {"measurement": "SARS-CoV-2 replication / titers", "setting": "[5]", "result": "undetectable levels"}, {"measurement": "reduction of SARS-CoV-2 titers", "setting": "[5]", "result": "about 4 logs"}, {"measurement": "reduction of production of infectious virus progeny", "setting": "[5]", "result": "approximately 1.5 log steps"}, {"measurement": "cytotoxicity by light microscopy", "setting": "[18]", "result": "No obvious cytotoxicity"}, {"measurement": "cytotoxicity (in words)", "setting": "[6]", "result": "no major cytotoxicity"}, {"measurement": "CC50", "setting": "[6]; human", "result": "> 5000", "unit": "nM"}, {"measurement": "reduction of cell viability", "setting": "[6]; human", "result": "10-25%"}, {"measurement": "cytotoxicity (in words)", "setting": "[19]", "result": "no detectable cytotoxicity"}, {"measurement": "CC50", "setting": "[19]", "result": "> 5000", "unit": "nM"}, {"measurement": "pEC50", "setting": "[20]", "result": 8.54}, {"measurement": "pEC50", "setting": "[21]", "result": 8.73}, {"measurement": "reduction of cell viability", "setting": "[7]", "result": "no major cytotoxic effects"}, {"measurement": "cytotoxicity (in words)", "setting": "[22]", "result": "No major cytotoxicity"}, {"measurement": "cell viability reduced by", "setting": "[22]; African green monkey", "result": "10-25%"}]}
{"compound": "COC(=O)[C@H]1[C@@H](O)[C@@]2(O)c3c(OC)cc(O[C@@H]4O[C@@H]([C@H](O)CO)CO[C@H]4OC)cc3O[C@@]2(c2ccc(OC)cc2)[C@@H]1c1ccccc1", "note": "[Silvestrol, methyl(1R,2R,3S,3aR,8bS)-6-[[(2S,3R,6R)-6-[(1R)-1,2-dihydroxyethyl]-3-methoxy-1,4-dioxan-2-yl]oxy]-1,8b-dihydroxy-8-methoxy-3a-(4-methoxyphenyl)-3-phenyl-2,3-dihydro-1H-cyclopenta[b][1]benzofuran-2-carboxylate, reference compound]", "values": [{"measurement": "pEC50", "setting": "[8]; Human coronavirus 229E, MRC5", "result": 8.52}, {"measurement": "pEC50", "setting": "[9]; [26]", "result": 8.89}, {"measurement": "antiviral activity against LASV and CCHFV (in words)", "setting": "[1]", "result": "potent antiviral activity"}, {"measurement": "virus titer drop, LASV-infected cells", "setting": "[1]", "result": "approximately 4 log"}, {"measurement": "pEC50", "setting": "[1]", "result": 7.29}, {"measurement": "pEC50", "setting": "[1]; read-out: EC50 values", "result": "7.30 to 7.70"}, {"measurement": "virus titer drop, CCHFV-infected cells", "setting": "[10]", "result": "~3", "unit": "log"}, {"measurement": "pEC50", "setting": "[10]", "result": 7.54}, {"measurement": "pEC50", "setting": "[11]; A549", "result": 8.97}, {"measurement": "infectious virus production", "setting": "[3]", "result": "undetectable levels"}, {"measurement": "reduction of virus titer in the supernatant", "setting": "[3]", "result": "similar"}, {"measurement": "antiviral effect on extracellular HEV RNA levels", "setting": "[14]", "result": "antiviral activity"}, {"measurement": "induction of luciferase activity", "setting": "[15]", "result": 1.5, "unit": "fold"}, {"measurement": "inhibitory effect, destabilized HEV 5′-UTR hairpin", "setting": "[15]", "result": "gradual loss of the inhibitory effect"}, {"measurement": "luciferase activity, HEVgt3c 5′-UTR", "setting": "[15]", "result": "reduced luciferase activity"}, {"measurement": "reporter activity, VP35-HP only", "setting": "[15]", "result": "sufficient to mediate translation inhibition"}, {"measurement": "reporter activity, VP35-HP+(AG)5", "setting": "[15]", "result": "slightly increased translation inhibition"}, {"measurement": "sensitivity of translation, EBOV VP35 5′-UTR", "setting": "[15]", "result": "sensitive"}, {"measurement": "sensitivity to translation inhibition, 5′-UTRs of HCoV-229E, MERS-CoV and EBOV VP30", "setting": "[15]", "result": "similarly sensitive"}, {"measurement": "sensitivity, HEVgt3c-Purine 5′-UTR", "setting": "[15]", "result": "became sensitive"}, {"measurement": "inhibition at 0.01 µM", "setting": "[15]", "result": "~55", "unit": "%"}, {"measurement": "SARS-CoV-2 replication / titers", "setting": "[5]", "result": "completely abolished"}, {"measurement": "CC50", "setting": "[6]; human", "result": "> 10000", "unit": "nM"}, {"measurement": "cytotoxicity (in words)", "setting": "[19]", "result": "no detectable cytotoxicity"}, {"measurement": "CC50", "setting": "[19]", "result": "> 5000", "unit": "nM"}, {"measurement": "CC50", "setting": "[23]", "result": 9.42, "unit": "nM"}, {"measurement": "tumor growth", "setting": "[24]", "result": "reduced tumor growth efficiently"}]}
{"compound": "CR-31-B", "values": [{"measurement": "cytotoxic effects (in words)", "setting": "[6]", "result": "no major cytotoxic effects"}, {"measurement": "reduction of cell viability", "setting": "[7]", "result": "not cytotoxic"}, {"measurement": "tumor growth", "setting": "[24]", "result": "reduced tumor growth efficiently"}, {"measurement": "serum levels of aminotransferases (ALT and AST), albumin, total bilirubin, creatinine", "setting": "[25]; two weeks after cessation of treatment", "result": "not significantly changed"}, {"measurement": "body weight, number of blood cells", "setting": "[25]", "result": "did not change"}, {"measurement": "toxicity in the gastrointestinal tract", "setting": "[25]", "result": "no toxicity could be observed"}]}
